Data from patent US8822517B2, “Arylosulfonamides for the treatment of CNS diseases” (Adamed SP. Z O.O., priority 2010, dated 2014).

Tests used:
[1] = molecular target: T1, serotonine transporter (SERT) receptor (Homo sapiens, UniProt P31645); test: Binding assay SERT (h), [3H]imipramine, CHO cells; conditions: read-out: SERT [%]
T1 construct: expressed in transfected cells; host or cells: CHO cells
Description: (§1) The specific ligand binding to the receptors is defined as the difference between the total binding and the nonspecific binding determined in the presence of an excess of so unlabelled ligand.
(§2) The specific Ligand binding to the receptor is defined as the difference between total and non-specific binding determined in the presence of an excess of unlabelled ligand. The compounds were tested at a concentration of 1×10^−6 M, and scintillation counting was the method of detection of ligand binding.

dopaminergic D3 receptor = dopaminergic D3 receptor (Homo sapiens, UniProt P35462); test: Binding assay D3 (h), [3H]methyl-spiperone, CHO cells; parameters: expressed in transfected cells; host or cells: CHO cells; conditions: read-out: D3 [%]
Description: as §1, §2

[2] = molecular target: serotoninergic 5-HT6 receptor (Homo sapiens, UniProt P50406); test: Binding assay 5-HT6 (h), [3H]LSD, CHO cells; parameters: expressed in transfected cells; host or cells: CHO cells; conditions: read-out: 5-HT6
Description: as §1, §2

[3] = molecular target: serotoninergic 5-HT7 receptor (Homo sapiens, UniProt P34969); test: Binding assay 5-HT7 (h), [3H]LSD, CHO cells; parameters: expressed in transfected cells; host or cells: CHO cells; conditions: read-out: 5-HT7
Description: as §1, §2

dopaminergic D2 receptor = dopaminergic D2 receptor (Homo sapiens, UniProt P14416); test: Binding assay D2S (h), [3H]methyl-spiperone, HEK-293 cells; parameters: expressed in transfected cells; host or cells: HEK-293 cells; conditions: read-out: D2 [%]
Description: as §1, §2

[4] = molecular target: T2, serotoninergic 5-HT1A receptor (Homo sapiens, UniProt P08908); test: Binding assay 5-HT1A (h), [3H]8-OH-DPAT, HEK-293 cells; parameters: expressed in transfected cells; host or cells: HEK-293 cells; conditions: read-out: 5-HT1A
T2 sequence (P08908 1-422): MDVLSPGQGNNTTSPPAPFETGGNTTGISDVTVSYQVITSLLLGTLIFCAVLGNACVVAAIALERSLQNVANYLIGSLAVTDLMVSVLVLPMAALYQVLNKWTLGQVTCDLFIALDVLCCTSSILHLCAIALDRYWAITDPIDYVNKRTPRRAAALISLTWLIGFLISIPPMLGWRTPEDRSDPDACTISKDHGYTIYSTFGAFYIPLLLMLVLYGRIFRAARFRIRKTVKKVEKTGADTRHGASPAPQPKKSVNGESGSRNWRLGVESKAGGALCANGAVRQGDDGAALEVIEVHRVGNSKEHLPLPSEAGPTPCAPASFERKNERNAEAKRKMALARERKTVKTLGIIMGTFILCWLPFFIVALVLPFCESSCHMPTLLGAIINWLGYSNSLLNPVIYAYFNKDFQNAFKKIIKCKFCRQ
Description: as §1, §2

[5] = molecular target: serotoninergic 5-HT2A receptor (Homo sapiens, UniProt P28223); test: Binding assay 5-HT2A (h), [3H]ketanserin, HEK-293 cells; parameters: expressed in transfected cells; host or cells: HEK-293 cells; conditions: read-out: 5-HT2A
Description: as §1, §2

adrenergic α1 receptor = test: Binding assay α1 (non-selective), [3H]prazosin, rat cerebral cortex; conditions: percent inhibition of control specific binding; compounds tested at 1×10^−6 M
Description: as §1, §2

Chain of dopaminergic D2 receptor (P14416 1-414 isoform P14416-2): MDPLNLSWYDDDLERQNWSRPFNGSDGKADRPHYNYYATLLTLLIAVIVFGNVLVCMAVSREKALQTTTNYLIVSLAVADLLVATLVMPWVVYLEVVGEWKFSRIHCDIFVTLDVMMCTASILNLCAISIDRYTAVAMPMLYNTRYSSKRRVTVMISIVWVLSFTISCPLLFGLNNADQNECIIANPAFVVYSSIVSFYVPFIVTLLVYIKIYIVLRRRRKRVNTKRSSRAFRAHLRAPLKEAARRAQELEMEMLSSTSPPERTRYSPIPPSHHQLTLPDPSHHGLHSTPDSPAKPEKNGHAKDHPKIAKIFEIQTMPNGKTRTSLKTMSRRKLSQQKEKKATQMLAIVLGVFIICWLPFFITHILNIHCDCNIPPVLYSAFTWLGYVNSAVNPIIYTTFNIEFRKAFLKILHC
Chain of serotoninergic 5-HT2A receptor (P28223 whole entry): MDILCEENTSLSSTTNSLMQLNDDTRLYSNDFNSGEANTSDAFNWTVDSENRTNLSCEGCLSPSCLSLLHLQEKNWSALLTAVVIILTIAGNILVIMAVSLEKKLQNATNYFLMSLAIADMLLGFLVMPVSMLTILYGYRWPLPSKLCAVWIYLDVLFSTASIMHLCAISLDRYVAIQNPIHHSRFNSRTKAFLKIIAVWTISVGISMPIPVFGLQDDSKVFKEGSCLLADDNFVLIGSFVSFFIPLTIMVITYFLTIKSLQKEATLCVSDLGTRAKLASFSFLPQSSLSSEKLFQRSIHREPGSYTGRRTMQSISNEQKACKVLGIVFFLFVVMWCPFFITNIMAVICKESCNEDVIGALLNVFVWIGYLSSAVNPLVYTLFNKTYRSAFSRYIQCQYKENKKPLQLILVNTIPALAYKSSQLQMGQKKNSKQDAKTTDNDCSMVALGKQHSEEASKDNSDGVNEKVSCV
Chain of dopaminergic D3 receptor (P35462 whole entry): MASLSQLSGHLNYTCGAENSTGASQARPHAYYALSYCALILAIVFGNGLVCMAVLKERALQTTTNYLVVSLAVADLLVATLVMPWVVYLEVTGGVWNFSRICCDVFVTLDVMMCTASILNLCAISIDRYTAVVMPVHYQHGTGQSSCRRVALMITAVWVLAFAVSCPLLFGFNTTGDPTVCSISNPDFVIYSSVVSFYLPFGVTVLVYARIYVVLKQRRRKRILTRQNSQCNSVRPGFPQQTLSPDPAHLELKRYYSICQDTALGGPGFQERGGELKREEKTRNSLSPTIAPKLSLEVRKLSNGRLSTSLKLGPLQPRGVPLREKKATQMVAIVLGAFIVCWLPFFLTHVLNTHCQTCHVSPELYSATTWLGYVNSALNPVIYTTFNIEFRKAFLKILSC
Chain of serotoninergic 5-HT7 receptor (P34969 whole entry): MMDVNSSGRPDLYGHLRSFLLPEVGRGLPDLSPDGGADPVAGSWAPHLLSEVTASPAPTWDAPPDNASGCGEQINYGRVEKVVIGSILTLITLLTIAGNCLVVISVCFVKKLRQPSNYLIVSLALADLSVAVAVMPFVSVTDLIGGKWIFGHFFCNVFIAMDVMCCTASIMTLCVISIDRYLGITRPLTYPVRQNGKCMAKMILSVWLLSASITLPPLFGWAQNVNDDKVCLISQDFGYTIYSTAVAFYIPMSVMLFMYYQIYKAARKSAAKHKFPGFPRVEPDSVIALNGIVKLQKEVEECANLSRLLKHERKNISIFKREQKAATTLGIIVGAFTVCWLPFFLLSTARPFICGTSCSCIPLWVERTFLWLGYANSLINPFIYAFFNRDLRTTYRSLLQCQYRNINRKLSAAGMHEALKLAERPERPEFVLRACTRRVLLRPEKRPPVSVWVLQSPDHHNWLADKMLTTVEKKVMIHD
T1 sequence (P31645 whole entry): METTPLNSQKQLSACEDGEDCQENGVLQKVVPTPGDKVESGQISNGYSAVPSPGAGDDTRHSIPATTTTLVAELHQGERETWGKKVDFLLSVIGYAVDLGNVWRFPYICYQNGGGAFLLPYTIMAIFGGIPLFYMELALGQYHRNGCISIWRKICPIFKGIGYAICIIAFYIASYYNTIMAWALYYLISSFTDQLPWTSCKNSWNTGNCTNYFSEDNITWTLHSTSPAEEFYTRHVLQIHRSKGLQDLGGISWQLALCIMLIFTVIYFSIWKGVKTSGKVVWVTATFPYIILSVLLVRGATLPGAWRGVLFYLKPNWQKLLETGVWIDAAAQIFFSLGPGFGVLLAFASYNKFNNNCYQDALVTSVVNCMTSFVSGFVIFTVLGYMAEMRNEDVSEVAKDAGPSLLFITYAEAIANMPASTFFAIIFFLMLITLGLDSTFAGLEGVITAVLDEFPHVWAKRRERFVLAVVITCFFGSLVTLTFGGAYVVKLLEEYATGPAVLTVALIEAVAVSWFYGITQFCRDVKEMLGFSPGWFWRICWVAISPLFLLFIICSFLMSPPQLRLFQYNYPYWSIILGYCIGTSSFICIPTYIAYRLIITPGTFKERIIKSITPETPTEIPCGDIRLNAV
Chain of serotoninergic 5-HT6 receptor (P50406 whole entry): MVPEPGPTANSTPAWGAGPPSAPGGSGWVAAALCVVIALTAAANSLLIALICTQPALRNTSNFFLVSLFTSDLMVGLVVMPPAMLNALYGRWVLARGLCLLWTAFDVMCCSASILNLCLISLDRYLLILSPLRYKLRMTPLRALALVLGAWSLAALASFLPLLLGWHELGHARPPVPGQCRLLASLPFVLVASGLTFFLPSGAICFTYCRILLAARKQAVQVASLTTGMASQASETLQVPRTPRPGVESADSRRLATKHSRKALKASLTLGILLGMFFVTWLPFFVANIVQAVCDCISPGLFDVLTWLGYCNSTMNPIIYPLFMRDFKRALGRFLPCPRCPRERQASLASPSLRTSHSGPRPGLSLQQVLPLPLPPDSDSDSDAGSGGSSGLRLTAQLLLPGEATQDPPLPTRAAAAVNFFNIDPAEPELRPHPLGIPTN

Compound O=S(=O)(NCCCN1CCN(c2nsc3ccccc23)CC1)c1ccc(Cl)cc1 [Compound 250, N-[3-[4-(1,2-Benzothiazol-3-yl)piperazin-1-yl]propyl]-4-chlorobenzenesulphonamide] has an inhibition at 1 µM [1] of 23%, an inhibition at 1 µM (dopaminergic D3 receptor) of 85% and an inhibition at 1 µM [2] of 73%. The inhibition at 1 µM [3] was 88%, the inhibition at 1 µM (dopaminergic D2 receptor) was 97% and the inhibition at 1 µM [4] was 98%. The inhibition at 1 µM [5] was 92%.
In the case of O=S(=O)(NCCCCN1CCN(c2cccc3c2OCCO3)CC1)c1cccs1 [Compound 397, N-[4-[4-(2,3-Dihydro-1,4-benzodioxin-8-yl)piperazin-1-yl]butyl]thiophene-2-sulphonamide], the “α1 [%]” value (adrenergic α1 receptor) is reported as 92%, the inhibition at 1 µM [4] is reported as 95% and the inhibition at 1 µM [5] is reported as 13%.
For O=c1[nH]c2cccc(N3CCN(CCCCNS(=O)(=O)c4cccc(Cl)c4)CC3)c2[nH]1 [Compound 173, 3-Chloro-N-[4-[4-(2-oxo-1,3-dihydrobenzimidazol-4-yl)piperazin-1-yl]butyl]benzenesulphonamide], the “α1 [%]” value (adrenergic α1 receptor) was 89% and the inhibition at 1 µM (dopaminergic D3 receptor) was 98%.
Cc1[nH]c2ccc(Cl)cc2c1C1=CCN(CCCCNS(=O)(=O)c2ccc(F)cc2)CC1 [Compound 368, N-[4-[4-(5-Chloro-2-methyl-1H-indol-3-yl)-3,6-dihydro-2H-pyridin-1-yl]butyl]-4-fluorobenzenesulphonamide] showed an inhibition at 1 µM [1] of 14%, an inhibition at 1 µM (dopaminergic D3 receptor) of 94% and an inhibition at 1 µM [2] of 96%. It also gave an inhibition at 1 µM [3] of 42%, an inhibition at 1 µM (dopaminergic D2 receptor) of 41% and an inhibition at 1 µM [4] of -7%. For the same compound, the inhibition at 1 µM [5] was 64%.
For O=S(=O)(NCCCCN1CCN(c2cccc3c2OCCO3)CC1)c1ccc2cc(Cl)ccc2c1 [Compound 387, 6-Chloro-N-[4-[4-(2,3-dihydro-1,4-benzodioxin-5-yl)piperazin-1-yl]butyl]naphthalene-2-sulphonamide], the inhibition at 1 µM [1] was -14%, the “α1 [%]” value (adrenergic α1 receptor) was 86% and the inhibition at 1 µM (dopaminergic D3 receptor) was 93%. For the same compound, the inhibition at 1 µM [2] was 26%, the inhibition at 1 µM [3] was 96% and the inhibition at 1 µM [4] was 100%. For the same compound, the inhibition at 1 µM [5] was 90%.
For O=S(=O)(NCCCN1CCN(c2cccc3c2OCCO3)CC1)c1cccc(Br)c1 [Compound 413, 3-Bromo-N-[3-[4-(2,3-dihydro-1,4-benzodioxin-5-yl)piperazin-1-yl]propyl]benzenesulphonamide], the “α1 [%]” value (adrenergic α1 receptor) was 90%, the inhibition at 1 µM [4] was 88% and the inhibition at 1 µM [5] was 40%.
With O=S(=O)(NCCCN1CCC(c2noc3cc(F)ccc23)CC1)c1ccc(Br)cc1 [Compound 330, 4-Bromo-N-[3-[4-(6-fluoro-1,2-benzoxazol-3-yl)piperidin-1-yl]propyl]benzenesulphonamide] the inhibition at 1 µM [1] was -2%, the inhibition at 1 µM (dopaminergic D3 receptor) was 99% and the inhibition at 1 µM [2] was 83%. The inhibition at 1 µM [3] was 90%, the inhibition at 1 µM (dopaminergic D2 receptor) was 108% and the inhibition at 1 µM [4] was 67%. It also gave an inhibition at 1 µM [5] of 93%.
Compound O=S(=O)(NCCCN1CCC(c2noc3cc(F)ccc23)CC1)c1cccc(Br)c1 [Compound 110, 3-Bromo-N-[3-[4-(6-fluoro-1,2-benzoxazol-3-yl)piperidin-1-yl]propyl]benzenesulphonamide] has an inhibition at 1 µM [1] of 8%, an inhibition at 1 µM (dopaminergic D3 receptor) of 97% and an inhibition at 1 µM [2] of 96%. For the same compound, the inhibition at 1 µM [3] was 91%, the inhibition at 1 µM (dopaminergic D2 receptor) was 109% and the inhibition at 1 µM [4] was 55%. For the same compound, the inhibition at 1 µM [5] was 99%.
O=S(=O)(NCCCN1CCC(c2noc3cc(F)ccc23)CC1)c1ccc(Cl)cc1 [Compound 328, 4-Chloro-N-[3-[4-(6-fluoro-1,2-benzoxazol-3-yl)piperidin-1-yl]propyl]benzenesulphonamide] gave an inhibition at 1 µM [1] of 7%, an inhibition at 1 µM (dopaminergic D3 receptor) of 99% and an inhibition at 1 µM [2] of 87%. The inhibition at 1 µM [3] was 92%, the inhibition at 1 µM (dopaminergic D2 receptor) was 108% and the inhibition at 1 µM [4] was 58%. The inhibition at 1 µM [5] was 90%.
In the case of O=c1[nH]c2cccc(N3CCN(CCCCNS(=O)(=O)c4ccc(F)cc4)CC3)c2[nH]1 [Compound 420, 4-Fluoro-N-[4-[4-(2-oxo-1,3-dihydrobenzimidazol-4-yl)piperazin-1-yl]butyl]benzenesulphonamide], the “α1 [%]” value (adrenergic α1 receptor) is reported as 82% and the inhibition at 1 µM (dopaminergic D3 receptor) is reported as 97%.
In the case of O=c1[nH]c2cccc(N3CCN(CCCCNS(=O)(=O)c4ccc(Cl)cc4)CC3)c2[nH]1 [Compound 421, 4-Chloro-N-[4-[4-(2-oxo-1,3-dihydrobenzimidazol-4-yl)piperazin-1-yl]butyl]benzenesulphonamide], the “α1 [%]” value (adrenergic α1 receptor) is reported as 88% and the inhibition at 1 µM (dopaminergic D3 receptor) is reported as 94%.
Cc1c(S(=O)(=O)NCCCN2CCC(c3noc4cc(F)ccc34)CC2)sc2ccc(Cl)cc12 [Compound 348, 5-Chloro-N-[3-[4-(6-fluoro-1,2-benzoxazol-3-yl)piperidin-1-yl]propyl]-3-methylbenzothiophene-2-sulphonamide] gave an inhibition at 1 µM [1] of 6%, an inhibition at 1 µM (dopaminergic D3 receptor) of 102% and an inhibition at 1 µM [2] of 96%. The inhibition at 1 µM [3] was 87%, the inhibition at 1 µM (dopaminergic D2 receptor) was 104% and the inhibition at 1 µM [4] was 36%. The inhibition at 1 µM [5] was 107%.
For O=S(=O)(NCCCN1CCC(c2noc3cc(F)ccc23)CC1)c1cccc(Cl)c1 [Compound 106, 3-Chloro-N-[3-[4-(6-fluoro-1,2-benzoxazol-3-yl)piperidin-1-yl]propyl]benzenesulphonamide], the inhibition at 1 µM [1] was 2%, the inhibition at 1 µM (dopaminergic D3 receptor) was 97% and the inhibition at 1 µM [2] was 93%. The inhibition at 1 µM [3] was 91%, the inhibition at 1 µM (dopaminergic D2 receptor) was 108% and the inhibition at 1 µM [4] was 63%. It also gave an inhibition at 1 µM [5] of 97%.
O=S(=O)(NCCCN1CC=C(c2c[nH]c3ccc(F)cc23)CC1)c1cccc(F)c1 [Compound 436, 3-Fluoro-N-[3-[4-(5-fluoro-1H-indol-3-yl)-3,6-dihydro-2H-pyridin-1-yl]propyl]benzenesulphonamide] showed an inhibition at 1 µM (dopaminergic D3 receptor) of 96%, an inhibition at 1 µM [4] of 85% and an inhibition at 1 µM [5] of 56%.
With O=S(=O)(NCCCN1CCN(c2cccc3c2OCCO3)CC1)c1ccc(F)c(F)c1 [Compound 410, N-[3-[4-(2,3-Dihydro-1,4-benzodioxin-5-yl)piperazin-1-yl]propyl]-3,4-difluorobenzenesulphonamide] the “α1 [%]” value (adrenergic α1 receptor) was 84%, the inhibition at 1 µM [4] was 96% and the inhibition at 1 µM [5] was 42%.
O=S(=O)(NCCCCN1CC=C(c2c[nH]c3ccc(F)cc23)CC1)c1cccc(O)c1 [Compound 434, N-[4-[4-(5-Fluoro-1H-indol-3-yl)-3,6-dihydro-2H-pyridin-1-yl]butyl]-3-hydroxybenzenesulphonamide] gave an inhibition at 1 µM (dopaminergic D3 receptor) of 98%.
O=S(=O)(NCCCN1CCC(c2noc3cc(F)ccc23)CC1)c1ccc(Cl)s1 [Compound 341, 5-Chloro-N-[3-[4-(6-fluoro-1,2-benzoxazol-3-yl)piperidin-1-yl]propyl]thiophene-2-sulphonamide] was tested, and the inhibition at 1 µM [1] was 8%, the inhibition at 1 µM (dopaminergic D3 receptor) was 98% and the inhibition at 1 µM [2] was 93%. It also gave an inhibition at 1 µM [3] of 78%, an inhibition at 1 µM (dopaminergic D2 receptor) of 98% and an inhibition at 1 µM [4] of 74%. It also gave an inhibition at 1 µM [5] of 102%.
With Cc1cccc(S(=O)(=O)NCCCCN2CCN(c3cccc4[nH]c(=O)[nH]c34)CC2)c1 [Compound 422, 3-Methyl-N-[4-[4-(2-oxo-1,3-dihydrobenzimidazol-4-yl)piperazin-1-yl]butyl]benzenesulphonamide] the “α1 [%]” value (adrenergic α1 receptor) was 86% and the inhibition at 1 µM (dopaminergic D3 receptor) was 98%.
In the case of O=c1[nH]c2cccc(N3CCN(CCCCNS(=O)(=O)c4cccc(F)c4)CC3)c2[nH]1 [Compound 175, 3-Fluoro-N-[4-[4-(2-oxo-1,3-dihydrobenzimidazol-4-yl)piperazin-1-yl]butyl]benzenesulphonamide], the “α1 [%]” value (adrenergic α1 receptor) is reported as 82% and the inhibition at 1 µM (dopaminergic D3 receptor) is reported as 87%.
